Results taken from ChEMBL document CHEMBL5550152, “Design, synthesis and evaluation of novel prostate-specific membrane antigen-targeted aryl [18F]fluorosulfate PET tracers” (Bioorg Med Chem, 2024).

How the values were obtained:
[1] = Drug distribution in nude mouse liver xenografted with human 22Rv1 cells at 8.1 MBq,iv measured after 4 hrs; type: ADME, tissue-based, CWR22R; details: in vivo
[2] = Stability of the compound in PBS buffer measured after 4 hrs by radio-HPLC analysis; type: physicochemical
[3] = Drug distribution in nude mouse gall bladder xenografted with human 22Rv1 cells at 8.1 MBq,iv measured after 2 hrs; type: ADME, tissue-based, CWR22R; details: in vivo
[4] = Drug uptake in human 22Rv1 cells at 3.7 10^-2MBq pretreated with 2-PMPA for 30 mins followed by compound addition and measured after 1 hr relative to control; type: ADME, cell-based; details: cwr22r
[5] = Drug distribution in nude mouse small intestine xenografted with human 22Rv1 cells at 8.1 MBq,iv measured after 4 hrs; type: ADME, tissue-based, CWR22R; details: in vivo
[6] = Drug distribution in nude mouse heart xenografted with human 22Rv1 cells at 8.1 MBq,iv measured after 1 hr; type: ADME, tissue-based, CWR22R; details: in vivo
[7] = Drug distribution in nude mouse small intestine xenografted with human 22Rv1 cells at 8.1 MBq,iv measured after 1 hr; type: ADME, tissue-based, CWR22R; details: in vivo
[8] = Drug distribution in nude mouse liver xenografted with human 22Rv1 cells at 8.1 MBq,iv measured after 1 hr; type: ADME, tissue-based, CWR22R; details: in vivo
[9] = Drug distribution in nude mouse spleen xenografted with human 22Rv1 cells at 8.1 MBq,iv measured after 1 hr; type: ADME, tissue-based, CWR22R; details: in vivo
[10] = Drug distribution in nude mouse small intestine xenografted with human 22Rv1 cells at 8.1 MBq,iv measured after 2 hrs in presence of 2-PMPA; type: ADME, tissue-based, CWR22R; details: in vivo
[11] = Drug distribution in nude mouse muscle tissue xenografted with human 22Rv1 cells at 8.1 MBq,iv measured after 2 hrs in presence of 2-PMPA; type: ADME, tissue-based, CWR22R; details: in vivo
[12] = Drug distribution in nude mouse large intestine xenografted with human 22Rv1 cells at 8.1 MBq,iv measured after 2 hrs in presence of 2-PMPA; type: ADME, tissue-based, CWR22R; details: in vivo
[13] = Drug uptake in human 22Rv1 cells at 3.7 10^-2MBq measured after 4 hrs relative to control; type: ADME, cell-based; details: cwr22r
[14] = Drug distribution in nude mouse stomach xenografted with human 22Rv1 cells at 8.1 MBq,iv measured after 1 hr; type: ADME, tissue-based, CWR22R; details: in vivo
[15] = Drug distribution in nude mouse large intestine xenografted with human 22Rv1 cells at 8.1 MBq,iv measured after 2 hrs; type: ADME, tissue-based, CWR22R; details: in vivo
[16] = Drug distribution in nude mouse heart xenografted with human 22Rv1 cells at 8.1 MBq,iv measured after 2 hrs in presence of 2-PMPA; type: ADME, tissue-based, CWR22R; details: in vivo
[17] = Drug distribution in nude mouse blood xenografted with human 22Rv1 cells at 8.1 MBq,iv measured after 2 hrs in presence of 2-PMPA; type: ADME, tissue-based, CWR22R; details: in vivo
[18] = Drug distribution in nude mouse bone xenografted with human 22Rv1 cells at 8.1 MBq,iv measured after 2 hrs; type: ADME, tissue-based, Bone element, CWR22R; details: in vivo
[19] = Drug distribution in nude mouse stomach xenografted with human 22Rv1 cells at 8.1 MBq,iv measured after 2 hrs in presence of 2-PMPA; type: ADME, tissue-based, CWR22R; details: in vivo
[20] = Drug distribution in nude mouse stomach xenografted with human 22Rv1 cells at 8.1 MBq,iv measured after 2 hrs; type: ADME, tissue-based, CWR22R; details: in vivo
[21] = Drug uptake in human 22Rv1 cells at 3.7 10^-2MBq measured after 1 hr relative to control; type: ADME, cell-based; details: cwr22r
[22] = Drug distribution in nude mouse kidney xenografted with human 22Rv1 cells at 8.1 MBq,iv measured after 2 hrs in presence of 2-PMPA; type: ADME, tissue-based, CWR22R; details: in vivo
[23] = Drug uptake in mouse tumor xenografted with human 22Rv1 cells at 7.4 MBq, iv measured after 4 hrs by PET imaging analysis relative to control; type: ADME, organism-based, Neoplasm, CWR22R; details: in vivo
[24] = Drug uptake in mouse abdomen xenografted with human 22Rv1 cells at 7.4 MBq, iv measured after 2 to 4 hrs by PET imaging analysis; type: ADME, organism-based, CWR22R; details: in vivo, time 2-4 hrs
[25] = Drug distribution in nude mouse large intestine xenografted with human 22Rv1 cells at 8.1 MBq,iv measured after 4 hrs; type: ADME, tissue-based, CWR22R; details: in vivo
[26] = Drug distribution in nude mouse muscle tissue xenografted with human 22Rv1 cells at 8.1 MBq,iv measured after 1 hr; type: ADME, tissue-based, CWR22R; details: in vivo
[27] = Stability in mouse plasma measured after 4 hrs by radio-HPLC analysis; type: ADME, cell-free
[28] = Drug distribution in nude mouse stomach xenografted with human 22Rv1 cells at 8.1 MBq,iv measured after 4 hrs; type: ADME, tissue-based, CWR22R; details: in vivo
[29] = Drug uptake in human 22Rv1 cells at 3.7 10^-2MBq pretreated with 2-PMPA for 30 mins followed by compound addition and measured after 4 hr relative to control; type: ADME, cell-based; details: cwr22r
[30] = Drug distribution in nude mouse brain xenografted with human 22Rv1 cells at 8.1 MBq,iv measured after 2 hrs; type: ADME, tissue-based, CWR22R; details: in vivo
[31] = Drug distribution in nude mouse lung xenografted with human 22Rv1 cells at 8.1 MBq,iv measured after 4 hrs; type: ADME, tissue-based, CWR22R; details: in vivo
[32] = Drug distribution in nude mouse bone xenografted with human 22Rv1 cells at 8.1 MBq,iv measured after 2 hrs in presence of 2-PMPA; type: ADME, tissue-based, Bone element, CWR22R; details: in vivo

COc1cc(C(=O)N[C@@H](CCC(=O)O)C(=O)N[C@@H](CCC(=O)O)C(=O)NCc2ccc(C(=O)N[C@@H](Cc3ccc4ccccc4c3)C(=O)NCCCC[C@H](NC(=O)N[C@@H](CCC(=O)O)C(=O)O)C(=O)O)cc2)ccc1OS(=O)(=O)[18F]
Drug uptake [1]: 0.79 % ID/g | Stability [2]: Stable | Drug uptake [3]: 6.05 % ID/g | Drug uptake [4]: 0.53% | Drug uptake [5]: 0.79 % ID/g | Drug uptake [6]: 1.57 % ID/g | Drug uptake [7]: 2.58 % ID/g | Drug uptake [8]: 4.61 % ID/g | Drug uptake [9]: 1.85 % ID/g | Drug uptake [10]: 9.02 % ID/g | Drug uptake [11]: 0.46 % ID/g | Drug uptake [12]: 1.1 % ID/g | Drug uptake [13]: 1.19% | Drug uptake [14]: 1.75 % ID/g | Drug uptake [15]: 2.77 % ID/g | Drug uptake [16]: 0.85 % ID/g | Drug uptake [17]: 3.86 % ID/g | Drug uptake [18]: 3.79 % ID/g | Drug uptake [19]: 0.57 % ID/g | Drug uptake [20]: 0.95 % ID/g | Drug uptake [21]: 0.72% | Drug uptake [22]: 4.33 % ID/g | Drug uptake [23]: 3.25 % ID/g | Drug uptake [24]: Active | Drug uptake [25]: 1.34 % ID/g | Drug uptake [26]: 1.32 % ID/g | Stability [27]: Stable | Drug uptake [28]: 0.44 % ID/g | Drug uptake [29]: 0.26% | Drug uptake [30]: 0.1 % ID/g | Drug uptake [31]: 0.52 % ID/g | Drug uptake [32]: 2.49 % ID/g
